Experimental data reported in ChEMBL document CHEMBL4673359, “Molecular docking and synthesis of caffeic acid analogous and its anti-inflammatory, analgesic and ulcerogenic studies” (Bioorg Med Chem Lett, 2021).

Assays:
[1] = molecular target: T1, Prostaglandin G/H synthase 2 (Homo sapiens, UniProt P35354); test: Inhibition of COX-2 (unknown origin) assessed as reduction in PGH2 formation using arachidonic acid as substrate preincubated for 5 mins followed by substrate addition and measured after 2 mins by enzyme immunoassay
T1 sequence (P35354 whole entry): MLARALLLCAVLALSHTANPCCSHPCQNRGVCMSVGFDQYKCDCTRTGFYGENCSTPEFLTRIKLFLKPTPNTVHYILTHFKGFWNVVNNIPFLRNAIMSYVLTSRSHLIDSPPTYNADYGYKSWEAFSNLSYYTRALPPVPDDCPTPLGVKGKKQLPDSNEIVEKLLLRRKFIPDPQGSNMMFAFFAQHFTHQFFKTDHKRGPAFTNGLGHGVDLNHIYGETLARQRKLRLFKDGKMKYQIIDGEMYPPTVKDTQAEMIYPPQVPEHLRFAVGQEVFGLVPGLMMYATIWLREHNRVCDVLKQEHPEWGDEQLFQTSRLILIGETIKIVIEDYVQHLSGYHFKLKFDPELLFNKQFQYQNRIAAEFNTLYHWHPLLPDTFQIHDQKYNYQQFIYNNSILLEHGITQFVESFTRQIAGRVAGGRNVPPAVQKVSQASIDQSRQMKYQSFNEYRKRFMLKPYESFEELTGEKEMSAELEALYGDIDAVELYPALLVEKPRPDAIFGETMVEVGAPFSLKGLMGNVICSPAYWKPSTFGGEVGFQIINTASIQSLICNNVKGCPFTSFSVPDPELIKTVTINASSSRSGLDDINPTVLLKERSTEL

[2] = Ulcerogenic activity in Wistar rat assessed as incidence of gastric ulceration by measuring severity index at 60 mg/kg, po measured after 17 hrs by microscopic analysis; format: toxicity, organism-based; settings: in vivo
[3] = system: Rattus norvegicus; test: Anti-inflammatory activity in Wistar rat assessed as inhibition of carrageenan-induced paw edema at 20 mg/kg, po administered 1 hr prior to carrageenan stimulation and measured after 3 hrs by plethysmometric method relative to control; format: functional; set-up: scale not given: the % may be the effect or the level left; settings: time 4 hrs
[4] = Acute toxicity in Wistar rat assessed as behavioral changes at 200 mg/kg, po administered for 7 days and observed for 14 days; format: organism-based; settings: in vivo, 336 h, time 14 day
[5] = molecular target: Prostaglandin G/H synthase 1 (Homo sapiens, UniProt P23219); test: Inhibition of COX-1 (unknown origin) assessed as reduction in PGH2 formation using arachidonic acid as substrate preincubated for 5 mins followed by substrate addition and measured after 2 mins by enzyme immunoassay
Sequence of Prostaglandin G/H synthase 1 (P23219 whole entry): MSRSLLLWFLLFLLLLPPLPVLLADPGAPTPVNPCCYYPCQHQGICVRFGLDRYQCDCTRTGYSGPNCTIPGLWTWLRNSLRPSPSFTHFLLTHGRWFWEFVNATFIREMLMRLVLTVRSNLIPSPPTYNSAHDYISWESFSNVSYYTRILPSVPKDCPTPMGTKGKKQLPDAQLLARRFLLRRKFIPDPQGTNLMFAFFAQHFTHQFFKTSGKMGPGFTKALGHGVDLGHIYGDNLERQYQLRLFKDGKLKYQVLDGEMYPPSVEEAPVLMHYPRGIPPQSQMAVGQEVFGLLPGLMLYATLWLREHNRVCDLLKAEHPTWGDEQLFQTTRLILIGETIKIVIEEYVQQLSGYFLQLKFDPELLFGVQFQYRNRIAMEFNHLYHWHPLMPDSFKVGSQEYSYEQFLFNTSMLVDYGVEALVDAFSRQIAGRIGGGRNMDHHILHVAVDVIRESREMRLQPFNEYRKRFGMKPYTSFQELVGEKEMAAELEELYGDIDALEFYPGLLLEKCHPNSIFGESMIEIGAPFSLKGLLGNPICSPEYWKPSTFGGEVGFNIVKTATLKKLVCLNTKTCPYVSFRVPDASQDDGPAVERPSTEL

[6] = Acute toxicity in Swiss albino mouse assessed as survival at 100 mg/kg, po administered for 7 days and observed for 14 days; format: organism-based; settings: in vivo, 336 h, time 14 day
[7] = Acute toxicity in Wistar rat assessed as survival at 200 mg/kg, po administered for 7 days and observed for 14 days; format: organism-based; settings: in vivo, 336 h, time 14 day
[8] = Acute toxicity in Swiss albino mouse assessed as behavioral changes at 200 mg/kg, po administered for 7 days and observed for 14 days; format: organism-based; settings: in vivo, 336 h, time 14 day
[9] = Acute toxicity in Wistar rat assessed as behavioral changes at 100 mg/kg, po administered for 7 days and observed for 14 days; format: organism-based; settings: in vivo, 336 h, time 14 day
[10] = system: Rattus norvegicus; test: Anti-inflammatory activity in Wistar rat assessed as inhibition of carrageenan-induced paw edema at 20 mg/kg, po administered 1 hr prior to carrageenan stimulation and measured after 4 hrs by plethysmometric method relative to control; format: functional; set-up: scale not given: the % may be the effect or the level left; settings: time 5 hrs
[11] = Acute toxicity in Swiss albino mouse assessed as behavioral changes at 100 mg/kg, po administered for 7 days and observed for 14 days; format: organism-based; settings: in vivo, 336 h, time 14 day
[12] = Acute toxicity in Wistar rat assessed as survival at 100 mg/kg, po administered for 7 days and observed for 14 days; format: organism-based; settings: in vivo, 336 h, time 14 day
[13] = Acute toxicity in Swiss albino mouse assessed as survival at 200 mg/kg, po administered for 7 days and observed for 14 days; format: organism-based; settings: in vivo, 336 h, time 14 day
[14] = system: Mus musculus; test: Analgesic activity in Swiss albino mouse assessed as inhibition of acetic acid-induced writhing at 20 mg/kg, po administered 30 mins prior to acetic acid treatment and measured for 20 mins; format: functional; set-up: scale not given: the % may be the effect or the level left; settings: time 50 min

| SMILES | IC50 [1] | Activity_index [2] | Activity [3] | Activity [4] | IC50 [5] | Activity [6] | Activity [7] | Activity [8] | Activity [9] | Activity [10] | Activity [11] | Activity [12] | Activity [13] | Activity [14] |
| --- | --- | --- | --- | --- | --- | --- | --- | --- | --- | --- | --- | --- | --- | --- |
| O=C(/C=C/c1ccc(O)c(O)c1)NNC(=O)COc1cccnc1 | 5 µM | 0.4 | 63.96% | Non-Toxic | 182 µM | Non-Toxic | Non-Toxic | Non-Toxic | Non-Toxic | 60.82% | Non-Toxic | Non-Toxic | Non-Toxic | 53.41% |
| O=C(/C=C/c1ccc(O)c(O)c1)NNC(=O)COc1ccc2ccccc2c1 | – | 0.57 | 51.61% | Non-Toxic | – | Non-Toxic | Non-Toxic | Non-Toxic | Non-Toxic | 48.7% | Non-Toxic | Non-Toxic | Non-Toxic | 65.1% |
| O=C(/C=C/c1ccc(O)c(O)c1)NNC(=O)COc1cccc2cccnc12 | 4.9 µM | 0.53 | 66.61% | Non-Toxic | 126 µM | Non-Toxic | Non-Toxic | Non-Toxic | Non-Toxic | 61.47% | Non-Toxic | Non-Toxic | Non-Toxic | 57.3% |
| Cc1ccc(OCC(=O)NNC(=O)/C=C/c2ccc(O)c(O)c2)cc1 | – | 0.38 | 58.71% | Non-Toxic | – | Non-Toxic | Non-Toxic | Non-Toxic | Non-Toxic | 55.53% | Non-Toxic | Non-Toxic | Non-Toxic | 64.68% |
| O=C(/C=C/c1ccc(O)c(O)c1)NNC(=O)COc1ccc(Cl)cc1 | 3.17 µM | 0.76 | 75.17% | Non-Toxic | 214 µM | Non-Toxic | Non-Toxic | Non-Toxic | Non-Toxic | 72.29% | Non-Toxic | Non-Toxic | Non-Toxic | 67.85% |
| Cc1ccc(OCC(=O)NNC(=O)/C=C/c2ccc(O)c(O)c2)c(C)c1 | 2.1 µM | 0.26 | 67.18% | Non-Toxic | 107 µM | Non-Toxic | Non-Toxic | Non-Toxic | Non-Toxic | 64.45% | Non-Toxic | Non-Toxic | Non-Toxic | 45.21% |
| O=C(/C=C/c1ccc(O)c(O)c1)NNC(=O)COc1ccc(Br)cc1 | 3.4 µM | 0.78 | 74.9% | Non-Toxic | 233 µM | Non-Toxic | Non-Toxic | Non-Toxic | Non-Toxic | 71.15% | Non-Toxic | Non-Toxic | Non-Toxic | 71.35% |
| O=C(/C=C/c1ccc(O)c(O)c1)NNC(=O)COc1cccc2ccccc12 | – | 0.46 | 49.96% | Non-Toxic | – | Non-Toxic | Non-Toxic | Non-Toxic | Non-Toxic | 44.45% | Non-Toxic | Non-Toxic | Non-Toxic | 50.7% |
| Cc1ccc2cccc(OCC(=O)NNC(=O)/C=C/c3ccc(O)c(O)c3)c2n1 | – | 0.57 | 57.19% | Non-Toxic | – | Non-Toxic | Non-Toxic | Non-Toxic | Non-Toxic | 53.15% | Non-Toxic | Non-Toxic | Non-Toxic | 49.02% |
| Cc1ccccc1OCC(=O)NNC(=O)/C=C/c1ccc(O)c(O)c1 | – | 0.58 | 54.96% | Non-Toxic | – | Non-Toxic | Non-Toxic | Non-Toxic | Non-Toxic | 49.83% | Non-Toxic | Non-Toxic | Non-Toxic | 49.18% |
| Cc1ccc(-c2cc(C(F)(F)F)nn2-c2ccc(S(N)(=O)=O)cc2)cc1 [CELECOXIB] | – | – | 78% | – | – | – | – | – | – | 74.56% | – | – | – | 73.53% |
